Reference: patent US12721848B2, “Pharmaceutical composition for preventing or treating graft versus host disease comprising thiamine derivatives” (Kyungpook National University Industry-Academic Cooperation …, priority 2020, dated 2026)

What was measured:
[1] = test system: allo-reactive CD4+IFNg+ T cell generation; test: mixed lymphocyte reaction (GVHD in vitro validation model), flow cytometry; type: cell-based, mouse; details: for Amount of generation (%) of CD4+IFNg+ T cells: BALB/c irradiated splenocytes + C57BL6/J CD4+ T cells, 5 days, positive control 37.4, syngeneic control 15.3
Source text: A high amount of CD4+IFNg+ T cell generated can be inferred to allow the proliferation of T cells against allogenic antigens, thereby attacking the body organs of a patient. Therefore, a graft versus host disease (GVHD) in vitro validation model was subjected to a mixed lymphocyte reaction to compare the degree of allo-reactive CD4+IFNg+ T cell generation among thiamine derivatives by flow cytometry.
Specifically, BALB/c mice were sacrificed by cervical dislocation, and then the spleens were extracted, followed by erythrocyte lysis using ACK lysing buffer. Thereafter, the isolated spleen cells were irradiated at 2500 cGy.
The positive group was treated with 10, 50, and 100 uM benfotiamine, 1, 5, and 10 uM allithiamine, and 10, 50, and 100 uM fursultiamine to prepare experimental groups.
Thereafter, the cells were cultured in RPMI1640 (10% FBS, 1% penicillin streptomycin) at 37° C. for 5 days, and the cells were separated, followed by flow cytometry, to investigate the degree of CD4+IFNg+ T cell generation.

[2] = test system: graft versus host disease (GVHD) model mice
Source text: Referring to FIG. 2A, 5-week-old BALB/c male mice were acclimatized for 1 week, irradiated with 800 cGy radiation throughout the body, and then injected with 5×10^6 C57BL/6J-derived bone marrow cells and 1×10^7 splenocytes derived therefrom via IV injection, thereby constructing a GVHD in vivo model (positive control group, Positive). The syngeneic control group (Syngeneic) was constructed in the same manner as above while BALB/c-derived bone marrow cells were selected as the bone marrow cells to be injected.
The fursultiamine administration group (Fur50) was constructed by daily oral gavage of fursultiamine HCl at 50 mg/kg to the GVHD in vivo model.
The treatment effect of fursultiamine was investigated on the constructed experimental groups by measuring the change in weight every 3 days.
On Day 14, the comparison between the amounts of generation of CD4+ T cells and CD4+IFNg+ T cells, which are major factors causing GVHD, was performed in the spleens isolated from the mice.
On Day 14 of inducing the GVHD in vivo model, liver and large intestine tissues were extracted from the mice, fixed in 4% paraformaldehyde for 48 hours, and then embedded in paraffin. The resultant tissues were sliced into 5 μm sections and then subjected to hematoxylin and eosin (H&E) staining. (bar=100 um)

[3] = spleen, Day 14, 50 mg/kg daily oral, in words

Row | SMILES | Amount of generation (%) of CD4+IFNg+ T cells ([1]; 10 μM) | Amount of generation (%) of CD4+IFNg+ T cells ([1]; 50 μM) | Amount of generation (%) of CD4+IFNg+ T cells ([1]; 100 μM) | degree of generation of CD4+IFNg+ T cells compared with the positive control ([1]; regardless of the concentration (10, 50, 100 uM)) | degree of generation of CD4+IFNg+ T cells compared with the positive control ([1]; at 50 uM or more, concentration dependent) | infiltration of immune cells in the liver tissue (H&E staining) ([2]; Day 14, 50 mg/kg daily oral, versus positive control group) | degree of infiltration of inflammatory cells into the liver and colon ([2]; GVHD-induced mouse model, summary statement) | change in weight compared with the GVHD in vivo model ([2]; fursultiamine HCl 50 mg/kg daily oral gavage, Day 12 of oral administration) | amount of generation of allogenic CD4+ T cells [2, 3] | amount of generation of allogenic CD4+IFNg+ T cells [2, 3] | Amount of generation of CD4+IFNg+ T cells (%) ([2]; spleen, Day 14, fursultiamine HCl 50 mg/kg daily oral gavage, positive control 18.3, syngeneic control 3.2) | Amount of generation of CD4+ T cells (%) ([2]; spleen, Day 14, fursultiamine HCl 50 mg/kg daily oral gavage, positive control 21.1, syngeneic control 6.9) | Amount of generation (%) of CD4+IFNg+ T cells ([1]; 1 μM) | Amount of generation (%) of CD4+IFNg+ T cells ([1]; 5 μM) | degree of generation of CD4+IFNg+ T cells compared with the positive control ([1]; at 5 uM or more, concentration dependent)
1 | C/C(=C(\CCOP(=O)(O)O)SC(=O)c1ccccc1)N(C=O)Cc1cnc(C)nc1N [Benfotiamine, benfotiamine] | 36.8% | 43.9% | 40.1% | no significant difference | – | – | – | – | – | – | – | – | – | – | –
2 | CC(=C(CCO)SSCC1CCCO1)N(C=O)Cc1cnc(C)nc1N (stereo in doubt) [Fursultiamine, fursultiamine] | 34.9% | 13.6% | 12.5% | – | significant reduction | reduced | reducing the degree of infiltration | significant recovery | reduced | reduced | 12.6% | 13.4% | – | – | –
3 | C=CCSS/C(CCO)=C(/C)N(C=O)Cc1cnc(C)nc1N [Allithiamine, allithiamine] | 23.9% | – | – | – | – | – | – | – | – | – | – | – | 35.2% | 25.7% | significant reduction
